Assay results from US12391991B2, “Markers to predict macrocyclic lactone drug resistance in Dirofilaria immitis, the causative agent of heartworm disease” (priority 2013, dated 2025).
“Also recorded” adds a separate entry of the source. Like-named read-outs stand apart in the source and are kept apart here. Marks after values point to notes of the source that are not given here.

Legend:
[1] = system: D. immitis microfilariae (LOE isolate case 4); conditions: in vivo
[2] = system: adult heartworms (D. immitis); set-up: species or system Dirofilaria immitis; conditions: in vivo
[3] = system: D. immitis Jd2009-2 isolate; set-up: species or system Dirofilaria immitis; conditions: in vivo
[4] = system: D. immitis (LOE isolate case 2); set-up: species or system Dirofilaria immitis; conditions: in vivo
D. immitis microfilariae = system: D. immitis microfilariae; set-up: species or system Dirofilaria immitis; conditions: in vivo
[5] = system: D. immitis (LOE isolate case 5); set-up: species or system Dirofilaria immitis; conditions: in vivo
[6] = system: D. immitis mf from dog Jd2009; assay type: cell-based, Dirofilaria immitis

For CCN(CC)C(=O)N1CCN(C)CC1 [diethylcarbamazine], the Blood smear [1] was “no mf” and the “Side effects of the treatment” value [1] was “No side effects”.

With Cl.Cl.NCCS[As](SCCN)c1ccc(Nc2nc(N)nc(N)n2)cc1 [melarsomine dihydrochloride] the “D. immitis antigen test” value [2] was “negative” and the “Antigen test Name-result (+ve or −ve)” value ([2]; dihydrochloride) was “SNAP −ve^a; also recorded: DiroChek −ve^c; also recorded: PetChek −ve^a”.

For CO[C@H]1C[C@H](O[C@@H]2/C(C)=C/C[C@@H]3C[C@@H](C[C@]4(CC[C@H](C)[C@@H](C5CCCCC5)O4)O3)OC(=O)[C@@H]3C=C(C)/C(=N/O)[C@H]4OC/C(=C\C=C\[C@@H]2C)[C@]43O)O[C@@H](C)[C@@H]1O [SEL, selamectin], the “Outcome of monthly chemoprophylaxis as recommended” value [3] was “at least one dog in groups of four to six dogs on these heartworm preventatives became infected”.

For milbemycin oxime [MO], the Heartworm antigen status [4] was “heartworm antigen positive”, the “Knott's test result” value (D. immitis microfilariae) was “Knott's test +ve^a; also recorded: Knott's test +ve^c” and the Microfilaremic status (D. immitis microfilariae) was “remained continually microfilaremic”. The “Microfilariae concentration in blood” value (D. immitis microfilariae) was ≥100^b mf/ml, the Microfilariae in blood (D. immitis microfilariae) was “microfilariae were still present” and the Heartworm antigen test [5] was “positive heartworm antigen test”. The “Outcome of monthly chemoprophylaxis as recommended” value [3] was “at least one dog in groups of four to six dogs on these heartworm preventatives became infected” and the “Knott's test” value ([1]; po) was “positive”.

CC[C@H](C)[C@H]1O[C@]2(CC[C@@H]1C)C[C@@H]1C[C@@H](C/C=C(\C)[C@@H](O[C@H]3C[C@H](OC)[C@@H](O[C@H]4C[C@H](OC)[C@@H](O)[C@H](C)O4)[C@H](C)O3)[C@@H](C)/C=C/C=C3\CO[C@@H]4[C@H](O)C(C)=C[C@@H](C(=O)O1)[C@]34O)O2 [IVM, ivermectin] was tested, and the “Sensitivity of mf to drug” value [6] was “significantly less sensitive”, the “Knott's test result” value (D. immitis microfilariae) was “Knott's test +ve^a” and the Microfilaremic status (D. immitis microfilariae) was “remained continually microfilaremic; also recorded: still microfilaremic”. The “Microfilariae concentration in blood” value (D. immitis microfilariae; po) was ≥100^b mf/ml, the “mf status during weekly dosing” value [5] was “remained positive for mf” and the “Knott's test” value [1] was “again positive”. The “Knott's tests” value [1] was “both positive”.
